# Results from patent US8217032B2, “Selective estrogen receptor modulators for the treatment of vasomotor symptoms” (Eli Lilly and Company, priority 2004, dated 2012).
# Key:
# [1] = tested on: ovariectomized Sprague-Dawley rats; experiment: Morphine withdrawal, rat hot flash model; assay type: in vivo; conditions: LRL data
# From the text: Morphine withdrawal, rat hot flash model: Simpkins et al. (1983) first published morphine withdrawal in the rat as a putative model for hot flashes, based on observations highlighting the similarity of symptoms of gonadal steroid withdrawal to those of opioid withdrawal. Although less severe, the signs and symptoms associated with clinical hot flashes, or estrogen deficiency, in the rat parallel those produced by naloxone-precipitated withdrawal in morphine dependent rats, including: 1) an increase in tail skin temperature, 2) a surge in luteinizing hormone and 3) an increase in heart rate. Each of these responses are associated with an increase in sympathetic outflow, which is a current mechanistic hypothesis for hot flashes. […] A key feature of animal models, is that they mimic the treatment efficacy observed with the human disease. The morphine withdrawal hot flash model, either in its originally described form, or with the modifications described herein, is responsive to agents typically used in the treatment of human hot flashes. This includes various forms of estrogen (Simpkins et al., 1983; LRL data), clonidine (LRL data), tibolone (LRL data), and medroxyprogesterone (LRL data). Furthermore, the model is sensitive to agents known to be associated with the induction of hot flashes in postmenopausal women.
# A modification of the original procedure of Simpkins et al. (1983) is used which employs ovariectomized Sprague-Dawley rats. […]
# On day 21 post-ovariectomy, animals are given […] (80 mg/kg; IM) 2-hours after final administration of the test compound. […] Temperature monitoring is initiated 30 minutes after administration of […] and is recorded every 15 seconds for a 1-hr period. […] A sharp rise in tail skin temperature typically occurs within 5 minutes post-naloxone injection, and two quantitative endpoints are made: 1) tail skin temperature at 15 min post-naloxone, and 2) area under the temperature response curve for the 45-min post-naloxone measurement period. […] Uteri are also removed at this time, and wet weight recorded.
# [2] = Phase III clinical studies; cited from earlier work
Compound,responsiveness of the morphine withdrawal hot flash model to agents typically used in the treatment of human hot flashes [1],incidence of hot flash compared to placebo [2]
Clc1cccc(Cl)c1N=C1NCCN1 [clonidine],responsive,–
O=C(c1ccc(OCCN2CCCCC2)cc1)c1c(-c2ccc(O)cc2)sc2cc(O)ccc12 [raloxifene],–,slight increased incidence of hot flash
C#C[C@]1(O)CC[C@H]2[C@@H]3[C@H](C)CC4=C(CCC(=O)C4)[C@H]3CC[C@@]21C [tibolone],responsive,–
medroxyprogesterone,responsive,–
